# Data reported in US7943667B2, “Potentiating the effect of compound comprising nitric oxide” (Duke University, priority 2007, dated 2011).
# Like-named read-outs stand apart in the source and are kept apart here.
# Experiments:
# [1] = system: Rat L2 (alveolar) cells, alveolar T1/T2 cells, alveolar macrophages; assay: NO gas at air-liquid interface, DAF-FM NO signal in L2, alveolar T1/T2 cells and alveolar macrophages; assay type: cell-based; settings: NO gas 10 ppm x 4 h; for NO signal in all cell types: D- or L-Cys 50 μM, 4-8 wells/group; for L-Cys increase of NO signal (effect of competitors): competitors 10 mM x 1 h
# Method: Rat L2 (alveolar) cells were used at passage 30. 1° alveolar T1/T2 cells were isolated from adult rat lungs with antibody-coated magnetic beads, and identified by immunocytochemistry (T1: T1^α, aquaporin-5; T2: pro-SP-C). Alveolar macrophages were obtained by lavage. Cells were plated onto collagen-coated transwells, grown submerged×2d, then incubated with DAF-FM to detect NO. Apical medium was replaced by buffer+glutathione 0.2 mM,±D-or L-Cys 50 μM±LAT competitors L-Leu or BCH, 10 mM×1 h then exposed to air or NO gas 10 ppm×4 h. Fluorescence was read in 4-8 wells/condition. LAT-1 expression was measured/RT-PCR in air or 95% O2-exposed newborn rat lung (day 2, 3, 4, 8).
# [2] = Transwell air-liquid interface exposure to NO or ENO gas, intracellular NO signal (DAF-FM); assay type: cell-based; settings: NO or ENO gas 10 ppm for 4 hours; for NO signal produced by ENO or NO gas: buffer with 0.2 mM glutathione
# Method: Cells were plated onto rat-tail collagen coated plastic inserts in a transwell system. When cells were firmly adherent and intact in appearance by microscopy, usually 24 h after plating, cell inserts were incubated in DAF-FM diacetate for one hour, then rinsed in Hepes-buffered Hank's balanced salt solution without amino acids. Buffer was removed from the upper chamber of the transwell and replaced with phosphate-buffered saline containing 0.2 mM glutathione in order to mimic the glutathione levels found in human alveolar lining fluid. […] The volume added was a few microliters sufficient to produce a layer of buffer ˜2 micron in thickness, in an effort to model the alveolar lining fluid thickness in the mammalian lung. Cell inserts were incubated at air liquid interface for 30 minutes, then exposed to NO or ENO gas 10 ppm for 4 hours. Inserts were then placed into a fluorescent microplate reader to detect the intracellular NO signal.
# lung cells = assay: S-nitrosothiol uptake in lung cells (LAT / PEPT2 transport); assay type: cell-based, rat
# Description: It was shown in a kidney cell line that transportation of extracellular S-nitrosothiols in the form of S-nitroso-L-cysteine through the L-type amnio acid transporter (LAT1) is necessary to achieve maximum intracellular S-nitrosothiol accumulation. It was also shown that eliminating the L-type amino acid transporter or blockade of the transporter severely limited the ability of extracellular S-nitroso-L-cysteine to gain entry into the kidney cell line. […] The results for kidney cell line were then obtained for umbilical endothelial cells. This reinforced our conception. We then performed exposures of rat pulmonary alveolar epithelial cells to a variety of S-nitrosothiol and nitric oxide donors and tested whether or not S-nitrosothiol and nitric oxide uptake required transnitrosylation of L-cysteine and uptake through L-type amino acid transport. In particular we conducted experiments using rat alveolar epithelial cells. […] We also tested the dipeptide transporter, PEPT2. […] When we added L-cysteine to the mixture, the high levels of S-nitrosothiol uptake in lung cells were restored, and this restoration was blocked when we blocked function of L-type amino acid transporter by competition or inhibition.
# We conducted additional studies to determine if an alternate transporter, namely PEPT2, could account for some of the S-nitrosothiol uptake in lung cells. […] This confirmed the importance of L-cysteine as the carrier which is necessary to achieve high levels of S-nitrosothiols in lung cells. We confirmed these finding in freshly isolated lung cells as well.
# [3] = Newborn piglet saline-lavage lung injury with pulmonary hypertension, pulmonary artery pressure; assay type: in vivo; settings: lungs lavaged with saline, inhaled NO 10 ppm, 56 Torr before treatment
# Method: Newborn piglet was anesthetized and a thoracotomy was performed after placing arterial and venous monitoring catheters. A catheter was placed in the pulmonary artery and flow sensors around the pulmonary artery were placed.
# Rat alveolar (L2) cells [4] = assay: Intracellular NO signal (DAF-FM fluorescence) in L2 cells incubated with ENO; assay type: cell-based; settings: ENO 10 mM, L-Leu 10 mM; for ENO induced intracellular NO signal (DAF): L-Cys 0.5 mM, by 24 minutes, N=5/group, p<0.05
# Method: (§1) Rat alveolar (L2) cells were located with DAF-FM (converted intracellularly to DAF; NO^++DAF→fluorescense), then incubated with ENO 10 mM+L-Cys 0.5 mM, L-Leu 10 mM (competitor for L-Cys entry via LAT1), or both L-Cys+L-Leu. DAF signal was measured at 5, 10, and 24 min. In parallel studies, S—NO was measured in L2 cell lysates after co-incubation with ENO 0.2 mM±L-Cys 0.5 mM±L-Leu 10 mM by ozone chemiluminescense (normalized to protein). LAT1 protein was detected by western and immunocytochemistry in 8d air or 95% O2—exposed rat lung.
# Rat alveolar (L2) cells [5] = assay: S-NO in L2 cell lysates by ozone chemiluminescence; assay type: cell-based; settings: for ENO induced SNO accumulation: ENO 0.2 mM ± L-Cys 0.5 mM ± L-Leu 10 mM, N=2/group
# Method: as §1
# [6] = Working Example II: prevention of bronchopulmonary dysplasia in a premature newborn; assay type: in vivo, human; settings: L-cysteine 36 micrograms/kg daily with continuous ethyl nitrite 1-10 ppm for 14 days
# Description: The patient is born at 25 weeks estimated gestational age following preterm prolonged spontaneous rupture of amniotic membranes. The patient requires immediate endotracheal intubation at birth as well as mechanical ventilation. The patient receives the usual neonatal intensive care including exogenous surfactant administration, indomethacin prophylaxis for prevention of intraventricular hemorrhage, and intravenous antibiotics. Because the patient is at high risk to develop bronchopulmonary dysplasia, the patient is treated each day with a single dose of 36 micrograms/kg of L-cysteine and continuous ethyl nitrite at 1-10 ppm for a total of 14 days. (This is done via […] unless the patient should be extubated, in which case the inhaled ethyl nitrite is delivered via nasal cannula and the L-cysteine is administered once a day via nebulizer) Within five days, the patient is weaned from mechanical ventilation and extubated to nasal continuous positive airway pressure, continuing to receive inhaled […] 1-10 ppm, and daily L-cysteine at 36 micrograms/kg. […], the continuous positive airway pressure is discontinued. […] the patient is discharged home, without any diagnosed complications of extreme prematurity. This example represents prevention of development of bronchopulmonary dysphasia in a premature newborn infant.
# [7] = Working Example I: persistent pulmonary hypertension of the newborn; assay type: in vivo, human; settings: L-cysteine 36 micrograms/kg by nebulizer, then inhaled ethyl nitrite or nitric oxide 1-50 ppm; from 88%
# Method: A newborn is delivered at 41 weeks gestational age through thick meconium following a labor requiring augmentation with oxytocin. They are immediately noted at birth to experience respiratory distress and cyanosis. […] Their respiratory distress worsens requiring mechanical ventilation. […] The patient is treated with 36 micrograms/kg of L-cysteine by nebulizer attached to the inspiratory limb of the ventilator circuit, followed by initiation of inhaled ethyl nitrite or inhaled nitric oxide at 1-50 ppm. The patient SpO2 rises immediately from 88% to 100%, and systolic blood pressure improves. This example represents treatment of persistent pulmonary hypertension of the newborn.
# [8] = system: rat alveolar pulmonary epithelial cells (L2 and Type II); assay: SNO/NO accumulation with NO donors in alveolar epithelial cells; assay type: cell-based; settings: L-Cys added to NO donors; inhibited by co-incubation with LAT competitors
# Method: We carried out experiments showing that addition of L-Cys to NO donors increased SNO/NO accumulation that was inhibited by co-incubation with LAT competitors in rat alveolar pulmonary epithelial cells (L2 and Type II). These are described in Granilla, O. M., AM. J. Physiol Lung Cell Mol. Physiol 295: L38-L43 (first published Apr. 25, 2008).
smiles,measurement,setting,value
N[C@H](CS)C(=O)O [D-cysteine],NO signal in all cell types,[1],not
same,NO signal produced by ENO or NO gas,[2],no effect
N[C@@H](CSN=O)C(=O)NCC(=O)O [S-nitroso-L-cysteinyl-glycine],S-nitrosothiol signal / accumulation in lung cells,lung cells,could not achieve high levels
same,S-nitrosothiol signal / accumulation in lung cells,lung cells; listed as S—NO-Cys-Gly,did not significantly increase
"NC1(C(=O)O)CC2CCC1C2 (stereo not drawn) [BCH, 2-aminobicyclo-(2,2,1)-heptane-2-carboxylic acid]",L-Cys increase of NO signal (effect of competitors),[1],blocked
same,L-cysteine augmentation of NO signal (effect of LAT competitors),[2]; with L-cysteine,completely abolished
"[N]=O [Inhaled nitric oxide, nitric oxide]",peak pulmonary pressure / pulmonary artery pressure,[3],45 Torr
"CCON=O [ENO, ethyl nitrite]",intracellular NO^+ (DAF),"Rat alveolar (L2) cells [4]; 5, 10 and 24 min",increased
same,intracellular SNO,Rat alveolar (L2) cells [5]; ENO 0.2 mM,increased
N[C@@H](CS)C(=O)NCC(=O)O [L-cysteinyl-glycine],uptake in lung cells via dipeptide transporter PEPT2,lung cells,taken up
CC(C)C[C@H](N)C(=O)O [L-leucine],L-Cys increase of NO signal (effect of competitors),[1],blocked
same,ENO induced intracellular NO signal (DAF),Rat alveolar (L2) cells [4],significantly less
same,ENO induced SNO accumulation,Rat alveolar (L2) cells [5],did not augment
N[C@@H](CS)C(=O)O [L-cysteine],NO signal in all cell types,[1],increased
same,bronchopulmonary dysplasia at 36 weeks post conceptual age,[6],no evidence of bronchopulmonary dysplasia
same,S-nitrosothiol signal / accumulation in lung cells,lung cells,restored
same,ENO induced intracellular NO signal (DAF),Rat alveolar (L2) cells [4],augmented
same,SpO2,[7],100%
same,NO signal produced by ENO or NO gas,[2],augmentation
same,SNO/NO accumulation,[8],increased
same,ENO induced SNO accumulation,Rat alveolar (L2) cells [5],augmented
